Reference: patent US4029688A, “Carbamic pesticidal compositions” (priority 1974, dated 1977)
Converted amounts (≈) assume the structure as drawn.

Assays:
[1] = tested on: bean aphid (Aphis fabae Scop.); test: Bean Aphid Foliage Spray Test; type: in vivo; design: key to Aphid: C: no control; B: partial control; A: excellent control; details: for Aphid: foliage spray, 500 parts per million, 24 hour; for LC50: Aphis fabae, foliar, Table II, side by side comparison, read-out: Aphids LD50
Description: (§1) Suspensions of the test compounds were prepared by dissolving one gram of compound in 50 milliliters of acetone in which had been dissolved 0.1 gram (10 percent of the weight of compound) of an alkylphenoxy polyethoxyethanol surfactant, as an emulsifying or dispersing agent. The resulting solution was mixed into 150 milliliters of water to give roughly 200 milliliters of a suspension containing the compound in finely divided form. The thus-prepared stock suspension contained 0.5 percent by weight of compound. The test concentrations in parts per million by weight employed in the tests described hereinbelow were obtained by appropriate dilutions of the stock suspension with water. The test procedures were as follows:
Adults and nymphal stages of the bean aphid (Aphis fabae Scop.) reared on potted dwarf nasturtium plants at 65°-70° F. and 50-70 percent relative humidity, constituted the test insects. For testing purposes, the number of aphids per pot was standardized to 100-150 by trimming plants containing excess aphids.
The test compounds were formulated by diluting the stock suspension with water to give a suspension containing 500 parts of test compound per million parts of final formulation.
The potted plants (one pot per compound tested) infested with 100-150 aphids, were placed on a revolving turntable and sprayed with 100-110 milliliters of test compound formulation by use of a DeVilbiss spray gun set at 40 psig. air pressure. This application, which lasted 25 seconds, was sufficient to wet the plants to run-off. As a control, 100-110 milliliters of a water-acetone-emulsifier solution containing no test compound were also sprayed on infested plants. After spraying, the pots were placed on their sides on a sheet of white standard mimeograph paper which had been previously ruled to facilitate counting. Temperature and humidity in the test room during the 24 hour holding period were 65°-70° F. and 50-70 percent, respectively. Aphids which fell onto the paper and were unable to remain standing after being uprighted were considered dead. Aphids remaining on the plants were observed closely for movement and those which were unable to move the length of the body upon stimulation by prodding were considered dead. Percent mortality was recorded for various concentration levels.
(§2) In the tests described above, the pesticidal activity of the compounds against aphid, mite, Southern Armyworm, Bean Beetle, house fly and nematode was rated as follows:
(§3) Comparison tests were conducted to assess the biological and chemical properties of certain representative species of the claimed invention in relation to their corresponding N-methyl carbamate compositions. The test procedures described above were employed in these experiments in order to determine the LD50 (number of parts per million of active ingredients required to achieve fifty percent mortality of the insects tested) for each of the compositions tested. In the case of the aphid and mite tests a side by side comparison was made of the N-methyl carbamate composition versus the corresponding perhalomethylsulfenyl derivative.

[2] = tested on: two-spotted mite (Tetranychus urticae Koch); test: Mite Systemic Test; type: in vivo; design: key: C: no control; B: partial control; A: excellent control; details: soil drench, 20 milliliters of test formulation
Description: as §1
Adults and numphal stages of the two-spotted mite (Tetranychus urticae Koch), reared on Tendergreen bean plants at 80±5 percent relative humidity, were the test organisms. Infested leaves from a stock culture were placed on the primary leaves of two bean plants six to eight inches in height, growing in a 21/2 inch clay pot. 150 -200 Mites, a sufficient number for testing, transferred from the excised leaves to the fresh plants in a period of twenty-four hours. Following the twenty-four hour transfer period, the excised leaves were removed from the infested plants. The test compounds were formulated by diluting the stock suspension with water to give a suspension containing 500 parts of test compound per million parts of final formulation. The potted plants (one pot per compound) were placed on a revolving turntable and sprayed with 100-110 milliliters of test compound formulation by use of a DeVilbiss spray gun set at 40 psig. air pressure. This application, which lasted 25 seconds, was sufficient to wet the plants to run-off. As a control, 100-110 milliliters of a water solution containing acetone and emulsifier in the same concentrations as the test compound formulation, but containing no test compound, were also sprayed on infested plants. The sprayed plants were held at 80±5 percent relative humidity for six days, after which a mortality count of motile forms was made. Microscopic examination for motile forms was made on the leaves of the test plants. Any individual which was capable of locomotion upon prodding was considered living.
Systemic treatments were made by drenching 20 milliliters of the test compound formulation into the soil around the roots of bean plants growing in 21/2 inch clay pots. These pots were held in 4 ounce wax paper containers to prevent cross-contamination and loss by leaching. The plants were 4 inches high at the time of treatment and had been infested with mites 24 hours previously. Subsequent steps for testing of the systemic miticidal activity were the same as those described above for the spray method of application.
In the tests described above, the pesticidal activity of the compounds against aphid, mite, Southern Armyworm, Bean Beetle, house fly and nematode was rated as follows: […]

[3] = tested on: house flies (Musca domestica, L.); test: Fly Bait Test; type: in vivo; design: key to Fly: C: no control; B: partial control; A: excellent control; details: for Fly: bait, 500 parts per million, twenty-four hours; for LC50: Musca domestica, Table II, read-out: Housefly LD50
Description: as §1
Four to six day old adult house flies (Musca domestica, L.), reared according to the specifications of the Chemical Specialties Manufacturing Association (Blue Book, McNair-Dorland Co., N. Y. 1954; pages 243-244, 261) under controlled conditions of 80°±5° F. and 50±5 percent relative humidity, were the test insects. The flies were immobilized by anesthetizing with carbon dioxide and twenty-five immobilized individuals, males and females, were transferred to a cage consisting of a standard food strainer about five inches in diameter which was inverted over a wrapping-paper-covered surface. The test compounds were formulated by diluting the stock suspension with a 10 percent (by weight) sugar solution to give a suspension containing 500 parts of test compound per million parts of final formulation, by weight. Ten milliliters of the test formulation were added to a souffle cup containing a one-inch square of an absorbent cotton pad. This bait cup was introduced and centered on the blotting paper under the food strainer prior to admitting the anesthetized flies. The caged flies were allowed to feed on the bait for twenty-four hours, at a temperature of 80°±5° F. and the relative humidity of 50±5 percent.
as §2, §3

[4] = Peroral toxicity to mammals (rat); details: in vivo, po
Description: Certain of these compositions were also evaluated to determine their peroral toxicity to mammals. The animal selected for this experiment was the rat. The test results obtained are expressed in terms of the number of milligrams of composition per kilogram of weight of the animal required to achieve a mortality rate of 50 percent (LD50).

[5] = Chemical stability; type: physicochemical; details: Table II

Structure (SMILES): CSCC(C)=NOC(=O)N(C)SC(Cl)(Cl)Cl
- Aphid [1]: B
- Mite (Systemic) [2]: C
- Fly [3]: A

Structure (SMILES): CSCC(=NOC(=O)N(C)SC(Cl)(Cl)Cl)C(C)(C)C
- Aphid [1]: A
- Mite (Systemic) [2]: A
- Fly [3]: B

Structure (SMILES): CC(CSC(C)(C)C)=NOC(=O)N(C)SC(Cl)(Cl)Cl
- Aphid [1]: A
- Mite (Systemic) [2]: C
- Fly [3]: C

Structure (SMILES): CC(=NOC(=O)N(C)SC(Cl)(Cl)Cl)C(C)(C)N=[N+]=[N-]
- Aphid [1]: A
- Mite (Systemic) [2]: C
- Fly [3]: A

Structure (SMILES): CC(=NOC(=O)N(C)SC(Cl)(Cl)Cl)C(C)(C)[N+](=O)[O-]
- Aphid [1]: A
- Mite (Systemic) [2]: A
- Fly [3]: A

Structure (SMILES): CC(C[N+](=O)[O-])=NOC(=O)N(C)SC(Cl)(Cl)Cl
- Aphid [1]: C
- Mite (Systemic) [2]: C
- Fly [3]: A

Structure (SMILES): CC(=NOC(=O)N(C)SC(Cl)(Cl)Cl)C(C)(C)C#N
- Aphid [1]: A
- Mite (Systemic) [2]: A
- Fly [3]: A

Structure (SMILES): COC(C)(C)C(Cl)=NOC(=O)N(C)SC(Cl)(Cl)Cl
- Aphid [1]: A
- Mite (Systemic) [2]: A
- Fly [3]: A

Structure (SMILES): CCOC(=O)CSC(C)(C)C=NOC(=O)N(C)SC(Cl)(Cl)Cl
- Aphid [1]: A
- Mite (Systemic) [2]: C
- Fly [3]: C

Structure (SMILES): CCOC(=O)C(C)SC(C)(C)C=NOC(=O)N(C)SC(Cl)(Cl)Cl (centres unmarked)
- Aphid [1]: A
- Mite (Systemic) [2]: B
- Fly [3]: C

Structure (SMILES): CSC(=NOC(=O)N(C)SC(Cl)(Cl)Cl)C(C)(SC)SC
- Aphid [1]: A
- Mite (Systemic) [2]: B
- Fly [3]: A

Structure (SMILES): CCOC(=O)CSC(C)=NOC(=O)N(C)SC(Cl)(Cl)Cl
- Aphid [1]: C
- Mite (Systemic) [2]: C
- Fly [3]: C

Structure (SMILES): CCOC(=O)CCSC(C)=NOC(=O)N(C)SC(Cl)(Cl)Cl
- Aphid [1]: B
- Mite (Systemic) [2]: C
- Fly [3]: B

Structure (SMILES): CC(=NOC(=O)N(C)SC(Cl)(Cl)Cl)SCCC#N [1-(2-Cyanoethylthio)acetaldehyde O-(N-methyl-N-trichloromethanesulfenylcarbamoyl)oxime]
- LC50 [1]: 10 µg/mL (≈ 28.5 µM)
- Aphid [1]: A
- LC50 [3]: 3 µg/mL (≈ 8.55 µM)
- Fly [3]: A
- LD50 ([4]; peroral, Table I): 85.7 mg/kg
- Stability [5]: stable

Structure (SMILES): CN(SC(Cl)(Cl)Cl)C(=O)ON=CC(C)(C)C#N [2-Methyl-2-cyanopropionaldehyde O-(N-methyl-N-trichloromethanesulfenylcarbamoyl)oxime]
- LC50 [1]: 23 µg/mL (≈ 72.2 µM)
- Aphid [1]: A
- Mite (Systemic) [2]: A
- LC50 [3]: 7 µg/mL (≈ 22 µM)
- Fly [3]: A
- LD50 ([4]; Table II): 28.3 mg/kg
- Stability [5]: stable

Structure (SMILES): CN(SC(Cl)(Cl)Cl)C(=O)ON=CC(C)(C)[S+](C)[O-] (centres unmarked) [2-Methyl-2-methylsulfinylpropionaldehyde O-(N-methyl-N-trichloromethanesulfenylcarbamoyl)oxime]
- Aphid [1]: A
- Mite (Systemic) [2]: A
- Fly [3]: A

Structure (SMILES): CN(SC(Cl)(Cl)Cl)C(=O)ON=CC(C)(C)S(C)(=O)=O [2-Methyl-2-methylsulfonylpropionaldehyde O-(N-methyl-N-trichloromethanesulfenylcarbamoyl)oxime]
- Aphid [1]: A
- Mite (Systemic) [2]: C
- Fly [3]: A

Structure (SMILES): CN(SC(Cl)(Cl)Cl)C(=O)ON=CC(C)(C)[N+](=O)[O-] [2-Methyl-2-nitropropionaldehyde O-(N-methyl-N-trichloromethanesulfenylcarbamoyl)oxime]
- LC50 [1]: 6 µg/mL (≈ 17.7 µM)
- Aphid [1]: A
- Mite (Systemic) [2]: A
- LC50 [3]: 5 µg/mL (≈ 14.8 µM)
- Fly [3]: A
- LD50 ([4]; Table II): 14 mg/kg
- LD50 ([4]; peroral, Table I): 13 mg/kg
- Stability [5]: stable

Structure (SMILES): CN(SC(F)(F)F)C(=O)ON=CC(C)(C)C#N [drawing 12]
- Aphid [1]: A
- Fly [3]: A
